Data published in paper PMC4506051, “Pharmacokinetic Profiles of Active Ingredients and Its Metabolites Derived from Rikkunshito, a Ghrelin Enhancer, in Healthy Japanese Volunteers: A Cross-Over, Randomized Study” (PLoS ONE, 2015).

Assays:
[1] = tested on: ghrelin secretion; details: cited from earlier work
[2] = Exploratory trial: ingredients in β-glucuronidase (enzyme)-treated urine; type: in vivo, human; details: human, in vivo
Protocol: (§1) In the first exploratory trial, 20-mL blood samples were collected from the cutaneous vein in the subjects’ forearm via a blood sampling tube that contained heparin at 0 (preadministration), 0.5, 1, 2, 4, and 8 h after a single oral administration of rikkunshito (Lot E24652). The dose of rikkunshito used in this trial was 7.5 g/day, which is the clinical daily dose, to widely explore rikkunshito-derived ingredients that enter the blood. Along with plasma, urine samples were collected at three points: between dinner and bedtime (preadministration), between 0 and 4 h after administration, and between 4 and 8 h after administration. The blood was immediately centrifuged at 1700 ×g for 10 min to obtain plasma. Plasma and urine fractions were stored at −80°C or lower until analysis.
(§2) For quantification of 30 ingredients other than atractylodin and synephrine, 25 µL of standard solution or methanol was added to 500 µL plasma or urine samples followed by mixing. Atractylenolide III or digoxin (IS) solution (50 μL) was added to the solutions followed by mixing. For urine, 400 µL of blank plasma was added to the solutions. Ammonium acetate solution (100 mM, 100 or 400 µL) was added to the solutions followed by mixing. For enzymatic treatment, plasma and urine samples were incubated with β-glucuronidase (100 units in 100 mM ammonium acetate) for 2 h at 37°C. A solid-phase cartridge (OASIS HLB, 30 mg/1cc, Waters) was conditioned with methanol and 10 mM ammonium acetate solution, and the samples were loaded onto the cartridge. The cartridge was washed water : methanol (9:1, v/v), and 1.5 mL of methanol and 30 µL of propylene glycol were added to the cartridge to elute the analytes. The mixtures were dried at 25°C under a stream of nitrogen gas. Furthermore, 100 μL of 10 mM ammonium acetate : methanol (8:2, v/v) was added to the dried samples followed by mixing and sonication. The solutions were filtered (0.22 µm) and followed by injection into the LC–MS/MS system. […] Those analytical conditions are summarized in S2 Table and S3 Table.

[3] = Stability of ingredients in gastric pH solution (pH 1.2, 37°C); type: physicochemical
Protocol: Rikkunshito gradually dissolved in acidic solution (pH 1.2) at 37°C, and the concentration of atractylodin after adding 0.25, 0.5, 1, and 2 h was measured by gas chromatography–mass spectrometry.

[4] = Exploratory trial: ingredients in β-glucuronidase (enzyme)-treated plasma; type: in vivo, human; details: in vivo
Protocol: as §1, §2

[5] = tested on: 5-HT2BR; set-up: method as in PMID 18439428; details: cited from earlier work
[6] = Exploratory trial: amount of rikkunshito ingredients in urine; type: in vivo, human
Method in brief: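 LC–MS/MS measurement of rikkunshito constituents in urine fractions (pre-dose, 0–4 h, 4–8 h) following one 7.5 g oral dose. Other constituents: enzymatic deglucuronidation at 37 °C for 2 h, then SPE cleanup with atractylenolide III or digoxin as IS; synephrine: erythromycin IS, Ostro plate.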

[7] = Exploratory trial: plasma concentration of rikkunshito ingredients after single oral rikkunshito 7.5 g; type: in vivo; details: for Plasma concentration, 0 h: 0 h (preadministration), single oral rikkunshito 7.5 g; for Plasma concentration, 0 h / Plasma concentration, 0.5 h / Plasma concentration, 1 h / Plasma concentration, 2 h / Plasma concentration, 4 h / Plasma concentration, 8 h: mean ± S.D., n = 4; for Plasma concentration, 0.5 h: 0.5 h after single oral rikkunshito 7.5 g; for Plasma concentration, 1 h: 1 h after single oral rikkunshito 7.5 g; for Plasma concentration, 2 h: 2 h after single oral rikkunshito 7.5 g; for Plasma concentration, 4 h: 4 h after single oral rikkunshito 7.5 g; for Plasma concentration, 8 h: 8 h after single oral rikkunshito 7.5 g
Method in brief: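 Plasma and urine levels were measured by LC–MS/MS after one 7.5 g oral dose of rikkunshito. Samples were collected before dosing and at 0.5–8 h for blood, or in 0–4 h and 4–8 h fractions for urine. Synephrine was determined after protein-removal plate cleanup; the other ingredients after β-glucuronidase deconjugation (2 h, 37°C) and SPE.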

[8] = tested on: 5-HT2CR; set-up: method as in PMID 18439428; details: cited from earlier work
[9] = Formation of ingredients derived from rikkunshito in formulation, blood, and urine (S11 Table summary); details: after rikkunshito administration, per ingredient in the formulation; for Formation of ingredients: form found in Urine: BQL = below the quantification limit
[10] = tested on: cisplatin-induced anorexia model; details: cited from earlier work
[11] = of the ingredient in the formulation; summary table, reference not given; cited from earlier work
[12] = oral administration at a dose of 4.0 mg/kg

In the case of `COc1ccc([C@@H]2CC(=O)c3c(O)cc(O)cc3O2)cc1O` [Hesperetin], the “Known pharmacology activities: ghrelin secretion” value [1] is listed as “Ghrelin secretion promoting activity [14, 15]”, the “Amount in enzyme-treated urine, 0–4 h” value [2] is listed as 7130 ± 9290 ng and the “Amount in enzyme-treated urine, 4–8 h” value [2] is listed as 56750 ± 37530 ng. For the same molecule, the “Amount in enzyme-treated urine, Pre” value [2] was 4290 ± 7690 ng, the “Increase of urine concentration after β-glucuronidase treatment compared with before treatment” value [2] was “more than 10 fold” and the “Stability in gastric pH solution, Quantitative value” (shortened to “Stability in gastric pH solution”) ([3]; 0.5 h, pH 1.2) was 4.38 ng/mL. For the same molecule, the “Stability in gastric pH solution” value ([3]; 1 h, pH 1.2) was 4.36 ng/mL, the “Stability in gastric pH solution” value ([3]; 2 h, pH 1.2) was 3.90 ng/mL and the Cmax ([4]; human) was 0.799 ng/mL. It also gave a concentration at 2 h ([4]; human) of 0.227 ± 0.264 ng/mL, a concentration at 4 h ([4]; human) of 0.799 ± 0.408 ng/mL and a concentration at 8 h ([4]; human) of 0.307 ± 0.289 ng/mL. The “Plasma concentration in enzyme-treated plasma, 0 h” value [4] was “BQL”, the “Plasma concentration in enzyme-treated plasma, 0.5 h” value [4] was “BQL” and the “Plasma concentration in enzyme-treated plasma, 1 h” value [4] was “BQL”. For the same molecule, the 5-HT2BR inhibitory/antagonistic activity [5] was “inhibit”, the “Amount in urine, Pre” value ([6]; human, in vivo) was 213 ± 390 ng and the “Amount in urine, 0–4 h” value ([6]; human, in vivo, po) was 462 ± 418 ng. The “Plasma concentration at all time points” value ([7]; 0–8 h, rikkunshito 7.5 g, untreated plasma, BQL = below the quantification limit) was “BQL” and the 5-HT2CR inhibitory activity [8] was “inhibit”.

In the case of `COc1ccc([C@@H]2CC(=O)c3c(O)cc(O[C@@H]4O[C@H](CO[C@@H]5O[C@@H](C)[C@H](O)[C@@H](O)[C@H]5O)[C@@H](O)[C@H](O)[C@H]4O)cc3O2)cc1O` [Hesperidin], the “Formation of ingredients: form found in Blood” value (shortened to “Formation … in Blood”) [9] is listed as “Conjugate metabolites of hesperetin”, the “Formation of ingredients: form found in Urine” value (“Formation … in Urine” below) [9] is listed as “Hesperidin Hesperetin Conjugate metabolites of hesperetin” and the “Appetite following cisplatin administration” value [10, 12] is listed as “improves decreased appetite”. For the same molecule, the “Plasma ghrelin concentration following cisplatin administration” value [10, 12] was “inhibits a decrease in plasma ghrelin concentration”, the “Acylated ghrelin level in blood” value ([10]; oral administration, cisplatin-induced anorexia model) was “suppressed the decrease of the acylated ghrelin level in blood in a concentration-dependent manner” and the Metabolite by enterobacterium [11] was “Hesperetin”. The “Stability in gastric pH solution” value ([3]; rikkunshito in acidic solution (pH 1.2) at 37°C, 0.5 h) was 2860 ng/mL, the “Stability in gastric pH solution” value ([3]; rikkunshito in acidic solution (pH 1.2) at 37°C, 1 h) was 3130 ng/mL and the “Stability in gastric pH solution” value ([3]; rikkunshito in acidic solution (pH 1.2) at 37°C, 2 h) was 2570 ng/mL. For the same molecule, the “Amount in urine, 0–4 h” value ([6]; 0–4 h after single oral rikkunshito 7.5 g, mean ± S.D., n = 4) was 184 ± 60.5 ng, the “Amount in urine, 4–8 h” value ([6]; 4–8 h after single oral rikkunshito 7.5 g, mean ± S.D., n = 4) was 68.6 ± 47.9 ng and the “Amount in urine, Pre” value ([6]; preadministration (between dinner and bedtime), mean ± S.D., n = 4) was 28.9 ± 57.8 ng.

In the case of `O=C1C[C@@H](c2ccc(O[C@@H]3O[C@H](CO)[C@@H](O)[C@H](O)[C@H]3O)cc2)Oc2cc(O)ccc21` [Liquiritin], the “Formation … in Blood” value [9] is given as “Liquiritin Liquiritigenin^c”, the “Formation … in Urine” value [9] is given as “Liquiritin Liquiritigenin^c” and the Metabolite by enterobacterium [11] is given as “Liquiritigenin^b”. The “Stability in gastric pH solution” value ([3]; 0.5 h, pH 1.2) was 1670 ng/mL, the “Stability in gastric pH solution” value ([3]; 1 h, pH 1.2) was 1830 ng/mL and the “Stability in gastric pH solution” value ([3]; 2 h, pH 1.2) was 1720 ng/mL. For the same molecule, the “Amount in urine, Pre” value ([6]; human, in vivo) was 15.7 ± 19.0 ng, the “Amount in urine, 4–8 h” value ([6]; human, in vivo, po) was 1900 ± 945 ng and the “Plasma concentration, 0 h” value [7] was “BQL”. The “Plasma concentration, 0.5 h” value [7] was 1.02 ± 0.131 ng/mL, the “Plasma concentration, 1 h” value [7] was 0.841 ± 0.0943 ng/mL and the “Plasma concentration, 2 h” value [7] was 0.403 ± 0.0913 ng/mL. For the same molecule, the “Plasma concentration, 4 h” value [7] was 0.114 ± 0.0392 ng/mL and the “Plasma concentration, 8 h” value [7] was “BQL”.

For `C[C@@H]1O[C@@H](O[C@H]2[C@H](Oc3cc(O)c4c(c3)O[C@H](c3ccc(O)cc3)CC4=O)O[C@H](CO)[C@@H](O)[C@@H]2O)[C@H](O)[C@H](O)[C@H]1O` [Naringin], the “Formation … in Blood” value [9] is given as “Naringin Naringenin Conjugate metabolites of naringenin^a”, the “Formation … in Urine” value [9] is given as “Naringin Naringenin” and the Metabolite by enterobacterium [11] is given as “Naringenin (portion)”. The “Stability in gastric pH solution” value ([3]; 0.5 h, pH 1.2) was 959 ng/mL, the “Stability in gastric pH solution” value ([3]; 1 h, pH 1.2) was 1060 ng/mL and the “Stability in gastric pH solution” value ([3]; 2 h, pH 1.2) was 986 ng/mL. For the same molecule, the “Amount in urine, Pre” value ([6]; human, in vivo) was 70.7 ± 69.2 ng, the “Amount in urine, 0–4 h” value ([6]; human, in vivo, po) was 1030 ± 313 ng and the “Amount in urine, 4–8 h” value ([6]; human, in vivo, po) was 598 ± 329 ng. For the same molecule, the “Plasma concentration, 0 h” value [7] was “BQL”, the “Plasma concentration, 0.5 h” value [7] was “BQL” and the “Plasma concentration, 1 h” value [7] was 0.059 ± 0.0684 ng/mL. For the same molecule, the “Plasma concentration, 2 h” value [7] was “BQL”, the “Plasma concentration, 4 h” value [7] was “BQL” and the “Plasma concentration, 8 h” value [7] was “BQL”.
